Assay results: patent US20020147158A1, “Composition and method for preventing and treating sinusoidal obstruction syndrome and radiation-induced liver disease” (University of Southern California, priority 2001, published 2002)
“Also recorded” adds a separate entry of the source.

How the values were obtained:
[1] = tested on: monocrotaline-induced hepatic venoocclusive disease; assay: monocrotaline-induced rat model of SOS (hepatic venoocclusive disease), blinded histologic scoring; assay type: in vivo; conditions: for prevention of SOS (overall histologic score, FIG. 1): monocrotaline model
Text: This FIGURE describes the effect of MMP inhibition in the in monocrotaline-induced model of SOS. Injury is rated as absent (−) or as one, two or three plus. The overall score reflects central vein (CV) endothelial damage, hemorrhage and coagulative necrosis: 2-3 points is considered mild SOS, 4-6 points is considered moderate SOS and 7-9 points is severe disease. The MMP2/MMP9 inhibitor used is 2-[(4-biphenylylsulfonyl)amino]-3-phenyl-propionic acid.
The present invention provides methods for using matrix metalloproteinase inhibitors to prevent and treat chemotherapy-induced liver disease, such as SOS and radiation-induced liver disease. These studies were done in an in vivo model of monocrotaline-induced hepatic venoocclusive disease which closely resembles the human disease.^8 Two commercially available MMP inhibitors were tested in the in vivo rat model of hepatic venoocclusive disease: doxycycline and the MMP-2/MMP-9 inhibitor, 2-[(4-biphenylsulfonyl)amino]-3-phenyl-propionic acid. Doxycycline, 15 mg/kg was given twice daily by gavage prior to onset of the disease and continued until the time of sacrifice. 2-[(4-biphenylsulfonyl)amino]-3-phenyl-propionic acid, 200 μg/hour was infused into the portal circulation until the time of sacrifice. A systematic scoring system was devised to review all the changes associated with hepatic venoocclusive disease.
The rats that were treated with the MMP inhibitors were sacrificed on day 4, which is the time-point with most severe disease in this model of hepatic venoocclusive disease when no therapeutic interventions are used. […] Both of these MMP inhibitors prevent hepatic venoocclusive disease in a dose-dependent manner, these showing that this is a class effect of MMP inhibitors and characteristic of MMP inhibition.

MMPs = conditions: stated in words, no test described; cited from earlier work

For `O=C(O)C(Cc1ccccc1)NS(=O)(=O)c1ccc(-c2ccccc2)cc1` (centres unmarked) [2-[(4-biphenylsulfonyl)amino]-3-phenyl-propionic acid], the “hepatic venoocclusive disease on blinded pathology scoring” value ([1]; day 4, 200 μg/hour infused intraportally by osmotic minipump) was “absence of hepatic venoocclusive disease”, the “protection from liver changes at lower doses” value ([1]; doses lower than 15 mg/kg twice daily (doxycycline) or 200 μg/hour (BPP)) was “partial protection” and the “prevention of SOS (overall histologic score, FIG. 1)” value ([1]; day 4, listed as 2-[(4-biphenylylsulfonyl)amino]-3-phenyl-propionic acid) was “completely prevented”. For the same compound, the “prevention of SOS (overall histologic score, FIG. 1)” value ([1]; day 4, listed as BPP) was “completely inhibits SOS”.

For `Cc1c2c(c(O)c3c(O)cccc13)C(=O)[C@]1(O)C(=O)C(C(N)=O)=C(O)[C@@H](N(C)C)[C@@H]1C2` [anhydrotetracycline], the “inhibitory effect on MMPs” value (MMPs) is listed as “weak MMP inhibitors; also recorded: little inhibitory effect on MMPs” and the “prevention of SOS (overall histologic score, FIG. 1)” value ([1]; day 4) is listed as “do not prevent SOS; also recorded: minimal protective effect”.

For isochlorotetracycline, the “inhibitory effect on MMPs” value (MMPs) is given as “weak MMP inhibitors; also recorded: little inhibitory effect on MMPs” and the “prevention of SOS (overall histologic score, FIG. 1)” value ([1]; day 4) is given as “do not prevent SOS; also recorded: minimal protective effect”.
